Assay results taken from the kinase profiling compilation of Christmann-Franck et al. (2016).

Key:
Assay in all cases: split-luciferase competition binding
AKT1 (human) = AKT1 (human) (UniProt P31749); settings: compound 10.0 µM
AKT2 (human) = AKT2 (human) (UniProt P31751); settings: compound 10.0 µM
AKT3 (human) = AKT3 (human) (UniProt Q9Y243); settings: compound 10.0 µM
AURKA (human) = AURKA (human) (UniProt O14965); settings: compound 10.0 µM
AURKB (human) = AURKB (human) (UniProt Q96GD4); settings: compound 10.0 µM
Chain of AURKB (human) (Q96GD4 whole entry, looked up): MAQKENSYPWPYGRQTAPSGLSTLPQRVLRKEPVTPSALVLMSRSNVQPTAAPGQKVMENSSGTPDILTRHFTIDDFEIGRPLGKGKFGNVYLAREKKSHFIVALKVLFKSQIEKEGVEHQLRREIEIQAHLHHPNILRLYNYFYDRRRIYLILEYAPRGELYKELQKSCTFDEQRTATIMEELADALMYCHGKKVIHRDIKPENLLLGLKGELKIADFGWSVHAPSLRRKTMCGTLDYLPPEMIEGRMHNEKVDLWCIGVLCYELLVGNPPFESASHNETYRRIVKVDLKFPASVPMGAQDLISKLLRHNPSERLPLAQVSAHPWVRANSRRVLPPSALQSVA

AURKC (human) = AURKC (human) (UniProt Q9UQB9); settings: compound 10.0 µM
DMPK (human) = DMPK (human) (UniProt Q09013); settings: compound 10.0 µM
Chain of DMPK (human) (Q09013 whole entry, looked up): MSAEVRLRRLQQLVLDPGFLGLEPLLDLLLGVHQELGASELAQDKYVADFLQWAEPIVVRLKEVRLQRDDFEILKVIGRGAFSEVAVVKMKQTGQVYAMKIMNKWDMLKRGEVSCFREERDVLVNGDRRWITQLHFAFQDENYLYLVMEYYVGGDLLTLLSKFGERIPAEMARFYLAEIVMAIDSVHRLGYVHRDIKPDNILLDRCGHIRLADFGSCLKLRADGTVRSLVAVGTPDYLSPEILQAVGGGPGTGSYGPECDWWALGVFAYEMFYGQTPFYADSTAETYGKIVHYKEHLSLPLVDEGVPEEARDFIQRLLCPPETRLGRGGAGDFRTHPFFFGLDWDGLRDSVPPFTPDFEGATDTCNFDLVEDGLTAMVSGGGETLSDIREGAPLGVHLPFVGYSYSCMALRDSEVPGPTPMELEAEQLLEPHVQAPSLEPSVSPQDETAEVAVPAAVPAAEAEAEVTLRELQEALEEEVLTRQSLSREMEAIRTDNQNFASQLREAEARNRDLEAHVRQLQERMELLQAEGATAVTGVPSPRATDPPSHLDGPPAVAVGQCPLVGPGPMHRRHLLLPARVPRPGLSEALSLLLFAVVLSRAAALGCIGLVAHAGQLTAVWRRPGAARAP

PDPK1 (human) = PDPK1 (human) (UniProt O15530); settings: compound 10.0 µM
Chain of PDPK1 (human) (O15530 whole entry, looked up): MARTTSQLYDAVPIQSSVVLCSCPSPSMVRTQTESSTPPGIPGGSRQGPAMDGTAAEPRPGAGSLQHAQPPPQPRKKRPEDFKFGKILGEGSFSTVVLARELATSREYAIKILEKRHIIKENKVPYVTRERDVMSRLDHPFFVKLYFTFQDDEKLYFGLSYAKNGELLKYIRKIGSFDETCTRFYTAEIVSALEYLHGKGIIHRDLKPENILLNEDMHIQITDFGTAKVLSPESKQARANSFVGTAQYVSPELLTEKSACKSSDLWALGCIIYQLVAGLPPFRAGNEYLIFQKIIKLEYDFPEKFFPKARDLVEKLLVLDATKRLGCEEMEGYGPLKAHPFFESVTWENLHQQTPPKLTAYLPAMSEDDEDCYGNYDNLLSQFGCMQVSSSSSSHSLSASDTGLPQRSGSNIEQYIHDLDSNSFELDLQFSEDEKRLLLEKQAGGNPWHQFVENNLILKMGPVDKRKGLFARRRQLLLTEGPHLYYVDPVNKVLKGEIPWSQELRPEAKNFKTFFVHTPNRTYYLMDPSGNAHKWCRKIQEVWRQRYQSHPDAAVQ

PKN1 (human) = PKN1 (human) (UniProt Q16512); settings: compound 10.0 µM
PRKACA (mouse) = settings: compound 10.0 µM; accession and sequence are those of the human protein
PRKACB (human) = PRKACB (human) (UniProt P22694); settings: compound 10.0 µM
PRKCD (human) = PRKCD (human) (UniProt Q05655); settings: compound 10.0 µM
PRKCE (human) = PRKCE (human) (UniProt Q02156); settings: compound 10.0 µM
PRKCG (human) = PRKCG (human) (UniProt P05129); settings: compound 10.0 µM
PRKCH (human) = PRKCH (human) (UniProt P24723); settings: compound 10.0 µM
PRKCI (human) = PRKCI (human) (UniProt P41743); settings: compound 10.0 µM
Chain of PRKCI (human) (P41743 whole entry, looked up): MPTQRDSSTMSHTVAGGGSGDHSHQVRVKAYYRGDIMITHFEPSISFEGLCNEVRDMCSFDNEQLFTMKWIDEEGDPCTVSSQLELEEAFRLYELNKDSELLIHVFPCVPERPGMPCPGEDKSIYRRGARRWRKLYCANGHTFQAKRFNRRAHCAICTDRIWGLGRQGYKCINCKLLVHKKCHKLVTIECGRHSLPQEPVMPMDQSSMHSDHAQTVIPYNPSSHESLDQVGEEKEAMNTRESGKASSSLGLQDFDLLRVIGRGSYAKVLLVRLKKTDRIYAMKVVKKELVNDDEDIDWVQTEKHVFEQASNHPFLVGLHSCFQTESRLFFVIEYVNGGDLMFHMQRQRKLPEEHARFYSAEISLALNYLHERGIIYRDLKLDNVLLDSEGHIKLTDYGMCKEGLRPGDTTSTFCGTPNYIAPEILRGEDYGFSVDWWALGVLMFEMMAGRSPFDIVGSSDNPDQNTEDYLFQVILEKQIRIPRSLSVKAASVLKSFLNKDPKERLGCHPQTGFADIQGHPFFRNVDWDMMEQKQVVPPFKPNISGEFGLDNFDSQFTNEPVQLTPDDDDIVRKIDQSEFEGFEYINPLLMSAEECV

PRKCQ (human) = PRKCQ (human) (UniProt Q04759); settings: compound 10.0 µM
Chain of PRKCQ (human) (Q04759 whole entry, looked up): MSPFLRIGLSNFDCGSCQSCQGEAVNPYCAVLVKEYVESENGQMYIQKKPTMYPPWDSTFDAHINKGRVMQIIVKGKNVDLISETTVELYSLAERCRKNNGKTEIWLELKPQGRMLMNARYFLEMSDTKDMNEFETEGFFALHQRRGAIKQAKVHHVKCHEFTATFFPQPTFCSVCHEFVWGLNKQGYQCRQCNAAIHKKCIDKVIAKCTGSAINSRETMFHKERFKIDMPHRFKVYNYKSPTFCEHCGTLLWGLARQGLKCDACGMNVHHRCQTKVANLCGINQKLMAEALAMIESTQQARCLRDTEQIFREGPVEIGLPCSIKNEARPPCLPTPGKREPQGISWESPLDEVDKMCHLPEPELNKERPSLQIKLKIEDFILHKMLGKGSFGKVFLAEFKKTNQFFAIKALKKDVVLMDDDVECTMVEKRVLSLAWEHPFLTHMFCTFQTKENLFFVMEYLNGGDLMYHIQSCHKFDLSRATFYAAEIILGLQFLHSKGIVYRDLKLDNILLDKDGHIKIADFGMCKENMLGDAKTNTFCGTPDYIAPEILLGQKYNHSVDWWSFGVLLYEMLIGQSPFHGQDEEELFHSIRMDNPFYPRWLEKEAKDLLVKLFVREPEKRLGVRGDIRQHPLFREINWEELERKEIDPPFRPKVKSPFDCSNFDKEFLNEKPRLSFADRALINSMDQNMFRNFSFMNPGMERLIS

PRKX (human) = PRKX (human) (UniProt P51817); settings: compound 10.0 µM
RPS6KA1 KD1 (human) = RPS6KA1 KD1 (human) (UniProt Q15418); settings: compound 10.0 µM
RPS6KA2 KD1 (human) = RPS6KA2 KD1 (human) (UniProt Q15349); settings: compound 10.0 µM
RPS6KA3 KD1 (human) = RPS6KA3 KD1 (human) (UniProt P51812); settings: compound 10.0 µM
RPS6KA4 KD1 (human) = RPS6KA4 KD1 (human) (UniProt O75676); settings: compound 10.0 µM
RPS6KA5 KD1 (human) = RPS6KA5 KD1 (human) (UniProt O75582); settings: compound 10.0 µM
RPS6KA6 KD1 (human) = RPS6KA6 KD1 (human) (UniProt Q9UK32); settings: compound 10.0 µM
SGK2 (human) = SGK2 (human) (UniProt Q9HBY8); settings: compound 10.0 µM
SGK3 (human) = SGK3 (human) (UniProt Q96BR1); settings: compound 10.0 µM
Chain of SGK3 (human) (Q96BR1 whole entry, looked up): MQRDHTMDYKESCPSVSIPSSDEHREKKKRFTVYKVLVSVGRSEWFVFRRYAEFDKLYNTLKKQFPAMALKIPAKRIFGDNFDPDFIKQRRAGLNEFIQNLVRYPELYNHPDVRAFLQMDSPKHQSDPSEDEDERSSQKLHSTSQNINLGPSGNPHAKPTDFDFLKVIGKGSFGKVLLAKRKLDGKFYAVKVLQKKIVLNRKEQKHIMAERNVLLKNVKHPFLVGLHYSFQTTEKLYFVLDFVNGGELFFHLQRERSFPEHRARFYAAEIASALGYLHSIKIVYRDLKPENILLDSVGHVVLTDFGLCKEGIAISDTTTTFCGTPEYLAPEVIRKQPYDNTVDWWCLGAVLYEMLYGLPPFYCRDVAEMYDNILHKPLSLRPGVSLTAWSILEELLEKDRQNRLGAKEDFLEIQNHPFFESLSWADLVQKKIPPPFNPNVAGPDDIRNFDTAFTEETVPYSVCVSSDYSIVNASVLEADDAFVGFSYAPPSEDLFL

STK32B (human) = STK32B (human) (UniProt Q9NY57); settings: compound 10.0 µM

Chain of AKT2 (human) (P31751 whole entry, looked up): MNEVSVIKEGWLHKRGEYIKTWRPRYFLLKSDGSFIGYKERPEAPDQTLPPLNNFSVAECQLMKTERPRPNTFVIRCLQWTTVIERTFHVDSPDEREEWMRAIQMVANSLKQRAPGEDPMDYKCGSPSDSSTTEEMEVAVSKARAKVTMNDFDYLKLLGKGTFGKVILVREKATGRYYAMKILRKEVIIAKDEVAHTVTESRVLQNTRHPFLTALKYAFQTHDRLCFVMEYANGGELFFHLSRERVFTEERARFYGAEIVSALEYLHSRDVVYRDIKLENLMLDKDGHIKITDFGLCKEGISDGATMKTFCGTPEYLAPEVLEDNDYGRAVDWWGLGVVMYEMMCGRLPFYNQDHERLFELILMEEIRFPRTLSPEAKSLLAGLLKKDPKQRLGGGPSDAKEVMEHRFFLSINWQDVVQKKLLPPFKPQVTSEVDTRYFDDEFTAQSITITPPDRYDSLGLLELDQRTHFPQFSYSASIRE
Chain of AURKA (human) (O14965 whole entry, looked up): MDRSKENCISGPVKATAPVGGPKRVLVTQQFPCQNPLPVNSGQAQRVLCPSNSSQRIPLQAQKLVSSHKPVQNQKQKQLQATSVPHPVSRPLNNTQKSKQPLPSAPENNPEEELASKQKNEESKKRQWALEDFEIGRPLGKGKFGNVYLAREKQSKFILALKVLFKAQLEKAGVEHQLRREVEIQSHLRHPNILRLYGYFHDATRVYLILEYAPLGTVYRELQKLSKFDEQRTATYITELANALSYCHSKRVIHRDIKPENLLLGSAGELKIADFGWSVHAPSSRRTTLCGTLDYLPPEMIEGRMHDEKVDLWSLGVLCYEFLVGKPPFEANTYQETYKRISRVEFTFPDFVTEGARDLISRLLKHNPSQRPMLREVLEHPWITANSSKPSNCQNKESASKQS

SMILES | inhibition (AKT1 (human)) [%] | inhibition (AKT2 (human)) [%] | inhibition (AKT3 (human)) [%] | inhibition (AURKA (human)) [%] | inhibition (AURKB (human)) [%] | inhibition (AURKC (human)) [%] | inhibition (DMPK (human)) [%] | inhibition (PDPK1 (human)) [%] | inhibition (PKN1 (human)) [%] | inhibition (PRKACA (mouse)) [%] | inhibition (PRKACB (human)) [%] | inhibition (PRKCD (human)) [%] | inhibition (PRKCE (human)) [%] | inhibition (PRKCG (human)) [%] | inhibition (PRKCH (human)) [%] | inhibition (PRKCI (human)) [%] | inhibition (PRKCQ (human)) [%] | inhibition (PRKX (human)) [%] | inhibition (RPS6KA1 KD1 (human)) [%] | inhibition (RPS6KA2 KD1 (human)) [%] | further results
CC(C)[C@H](CO)Nc1nc(Nc2cccc(Cl)c2)c2ncn(C(C)C)c2n1 | 0 | 0 | 0 | 0 | 0 | 0 | 11 | 0 | 0 | 7 | 0 | 0 | 2 | 0 | 0 | 0 | 0 | 0 | 65 | 48 | inhibition (RPS6KA3 KD1 (human)): 41%; inhibition (RPS6KA4 KD1 (human)): 12%; inhibition (RPS6KA5 KD1 (human)): 2%; inhibition (RPS6KA6 KD1 (human)): 19%; inhibition (SGK2 (human)): 0%; inhibition (SGK3 (human)): 0%; inhibition (STK32B (human)): 4%
O=c1cc(N2CCOCC2)oc2c1ccc1ccccc12 | 0 | 0 | 0 | 0 | 7 | 14 | 0 | 0 | 0 | 0 | 0 | 0 | 6 | 3 | 0 | 0 | 0 | 0 | 0 | 0 | inhibition (RPS6KA3 KD1 (human)): 0%; inhibition (RPS6KA4 KD1 (human)): 0%; inhibition (RPS6KA5 KD1 (human)): 1%; inhibition (RPS6KA6 KD1 (human)): 0%; inhibition (SGK2 (human)): 0%; inhibition (SGK3 (human)): 0%; inhibition (STK32B (human)): 0%
CC(C)N(CCC(=O)c1ccc2ccccc2c1)Cc1ccccc1 | 0 | 0 | 0 | 0 | 0 | 0 | 0 | 1 | 0 | 1 | 0 | 0 | 0 | 0 | 0 | 0 | 0 | 0 | 0 | 0 | inhibition (RPS6KA3 KD1 (human)): 0%; inhibition (RPS6KA4 KD1 (human)): 0%; inhibition (RPS6KA5 KD1 (human)): 2%; inhibition (RPS6KA6 KD1 (human)): 0%; inhibition (SGK2 (human)): 0%; inhibition (SGK3 (human)): 0%; inhibition (STK32B (human)): 0%
N#C/C(=C(/N)Sc1ccc(N)cc1)c1ccccc1C(F)(F)F | 0 | 0 | 0 | 0 | 1 | 0 | 0 | 0 | 6 | 2 | 0 | 1 | 0 | 0 | 0 | 0 | 0 | 11 | 0 | 0 | inhibition (RPS6KA3 KD1 (human)): 0%; inhibition (RPS6KA4 KD1 (human)): 0%; inhibition (RPS6KA5 KD1 (human)): 0%; inhibition (RPS6KA6 KD1 (human)): 0%; inhibition (SGK2 (human)): 0%; inhibition (SGK3 (human)): 4%; inhibition (STK32B (human)): 0%
